The text below walks through data of patent US20040142978A1, “Aminocyanopyridine inhibitors of mitogen activated protein kinase-activated protein kinase-2” (Pharmacia Corporation, priority 2002, published 2004).

Assay [1] deals with TNFα release from U937 cells. Briefly: U937 Cell TNFα Release Assay (LPS-stimulated, TNFα ELISA). Format: cell-based. The conditions noted are these: Homo sapiens, read-out: TNFα release assay IC50. As for the experimental part: The human monocyte-like cell line, U937 (ATCC #CRL-1593.2), is cultured in RPMI1640 media with 10% heat-inactivated fetal calf serum (GIBCO), glutamine and pen/strep at 37° C. and 5% CO2. Differentiation of U937 to monocytic/macrophage-like cells is induced by the addition of phorbol12-myristate 13-acetate (Sigma) at final concentration of 20 ng/ml to a culture of U937 cells at ˜0.5 million cells/ml and incubated for 24 hrs. The cells are centrifuged, washed with PBS and resuspended in fresh media without PMA and incubated for 24 hrs. Cells adherent to the culture flask are harvested by scraping, centrifugation, and resuspended in fresh media to 2 million cells/ml, and 0.2 ml is aliquoted to each of 96 wells in flat-bottom plate. Cells are then incubated for an additional 24 hrs to allow for recovery. The media is removed from the cells, and 0.1 ml of fresh media is added per well. 0.05 ml of serially diluted compound or control vehicle (Media with DMSO) is added to the cells. […] After 1 hr incubation, 0.05 ml of 400 ng/ml LPS (E Coli serotype 0111:B4, Sigma) in media is added for final concentration of 100 ng/ml. Cells are incubated at 37° C. for 4 hrs. After 4 hrs incubation, supernatants are harvest and assayed by ELISA for the presence of TNFα.
ELISA plates (NUNC-Immuno™ Plate Maxisorb™ Surface) were coated with purified mouse monoclonal IgG1 anti-human TNFα antibody (R&D Systems #MAB610; 1.25 ug/ml in sodium bicarbonate pH 8.0, 0.1 ml/well) and incubated at 4° C. Coating solution was aspirated the following day and wells were blocked with 1 mg/ml gelatin in PBS (plus 1× thimerasol) for 2 days at 4° C. Prior to using, wells were washed 3× with wash buffer (PBS with 0.05% Tween). Cultured media samples were diluted in EIA buffer (5 mg/ml bovine γ-globulin, 1 mg/ml gelatin, 1 ml/l Tween-20, 1 mg/ml thimerasol in PBS), added to wells (0.1 ml/well) in triplicate and allowed to incubate for 1.5 hr at 37° C. in a humidified chamber. Plates were again washed and 0.1 ml/well of a mixture of rabbit anti-human TNFα polyclonal antibodies in EIA buffer (1:400 dilution of Sigma #T8300, and 1:400 dilution of Calbiochem #654250) was added for 1 hr at 37° C. Plates were washed as before and peroxidase-conjugated goat anti-rabbit IgG (H+L) antibody (Jackson lmmunoResearch #111-035-144, 1 ug/ml in EIA buffer, 0.1 ml/well) was added for 45 min. After final washing, plates were developed with peroxidase-ABTS solution (Kirkegaard/Perry #50-66-01, 0.1 ml/well). Enzymatic conversion of ABTS to colored product was measured after 5-30 minutes using a SpectroMax 340 spectrophotometer (Molecular Devices) at 405 nm. TNF levels were quantitated from a recombinant human TNFα (R&D Systems #210-TA-010) standard curve using a quadratic parameter fit generated by SoftMaxPRO software. ELISA sensitivity was approximately 30 pg TNF/ml. IC50 values for compounds were generated using BioAssay Solver.
On the technique in general: An ELISA detects its analyte on a solid surface through an enzyme-linked reagent.

Another assay concerns TNFα production. Briefly: Lipopolysaccharide (LPS)-Induced TNFα Production (Rat LPS assay, serum TNFα ELISA). The following applies: 20 mpk (IG). Format: in vivo, Lewis rats. As for the experimental part:
Adult male 225-250 gram Lewis rats (Harlan Sprague-Dawley) were used. Rats were fasted 18 hr prior to oral dosing, and allowed free access to water throughout the experiment. Each treatment group consisted of 5 animals.
Compounds were prepared as a suspension in a vehicle consisting of 0.5% methylcellulose, 0.025% Tween-20 in PBS. Compounds or vehicle were orally administered in a volume of 1 ml using an 18 gauge gavage needle. LPS (E. coli serotype 0111:B4, Lot #39H4103, Cat. # L-2630, Sigma) was administered 1-4 hr later by injection into the penile vein at a dose of 1 mg/kg in 0.5 ml sterile saline. Blood was collected in serum separator tubes via cardiac puncture 1.5 hr after LPS injection, a time point corresponding to maximal TNFα production. […]
ELISA plates (NUNC-Immuno™ Plate Maxisorb™ Surface) were coated with 0.1 ml per well of an Protein G purified fraction of a 2.5 ug/ml of hamster anti-mouse/rat TNFα monoclonal antibody TN19.12 (2.5 ug/ml in PBS, 0.1 ml/well). […] Enzymatic conversion of ABTS to colored product was measured after ˜30 minutes using a SpectroMax 340 spectrophotometer (Molecular Devices Corp.) at 405 nm. TNF levels in serum were quantitated from a recombinant rat TNFα (BioSource International, Cat. #PRC3014.) standard curve using a quadratic parameter fit generated by SoftMaxPRO software. […]

Assay [2] has as its target Recombinant MAPKAPK2 (MK-2) (Homo sapiens, UniProt P49137). Nature of the assay: Determination of MK-2 IC50 (anion exchange resin capture assay, phosphorylation of HSP-peptide). It is filed as biochemical. As for the experimental part: The phosphorylation of HSP-peptide ([…]) by MAPKAPK2 was measured using an anion exchange resin capture assay method. […] The reaction was terminated and [γ^33P]ATP was removed from solution by the addition of 150 μl of AG 1×8 ion exchange resin in 900 mM sodium formate pH 3.0. A 50 μl aliquot of head volume was removed from the quenched reaction mixture and added to a 96-well plate, 150 μl of Microscint-40 (Packard) was added and the amount of phosphorylated-peptide was determined. Allow the Microscint to sit in the plates for 60 minutes prior to counting.
Compounds are evaluated as potential inhibitors of the MK2 kinase by measuring their effects on MK2 phosphorylation of the peptide substrate. Compounds may be screened initially at two concentrations prior to determination of IC50 values. Screening results are expressed as percent inhibition at the concentrations of compound tested. For IC50 value determinations, compounds are tested at six concentrations in ten-fold serial dilutions with each concentration tested in triplicate. Results are expressed as IC50 values in micromolar. The assay is performed at a final concentration of 2% DMSO.

[3] abbreviates: U-937, U937 cells, LPS 100 ng/ml, 4 hrs.

Structures are written as SMILES. Where a name gives a salt, the structure may show the parent alone. Read-outs that look alike come from different tables or passages of the source.

One may read the IC50 as the concentration needed to halve the response being measured.

Recombinant MAPKAPK2 (MK-2), sequence (P49137 whole entry, species assumed): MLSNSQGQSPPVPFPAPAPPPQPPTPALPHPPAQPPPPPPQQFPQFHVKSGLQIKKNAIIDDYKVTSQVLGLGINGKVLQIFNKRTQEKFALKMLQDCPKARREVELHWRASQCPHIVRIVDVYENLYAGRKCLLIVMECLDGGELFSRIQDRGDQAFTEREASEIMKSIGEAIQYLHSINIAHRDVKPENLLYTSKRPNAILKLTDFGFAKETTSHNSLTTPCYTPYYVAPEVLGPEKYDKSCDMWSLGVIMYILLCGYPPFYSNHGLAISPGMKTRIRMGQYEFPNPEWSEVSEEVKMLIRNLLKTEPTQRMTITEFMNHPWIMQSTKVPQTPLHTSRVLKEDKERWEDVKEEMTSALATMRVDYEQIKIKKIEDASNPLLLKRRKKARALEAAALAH

In the case of `N#Cc1c(-c2cnc[nH]2)cc(-c2cccc(O)c2)nc1N` [Example 4, 2-amino-6-(3-hydroxyphenyl)-4-(1H-imidazol-5-yl)nicotinonitrile trifluoroacetate], the half-inhibitory concentration (IC50) in assay [1] (U-937, 4 h) came out at 7 µM. In addition, the “Rat LPS assay: inhibition of TNFα production” value with TNFα production stood at 41%.

Turning to `N#Cc1c(-c2ccc(B(O)O)cc2)cc(-c2ccco2)nc1N` [Example 88, bis(trifluoroacetate)], the IC50 in assay [2] worked out at 64.6 µM.

Turning to `N#Cc1c(N)nc2c(c1-c1ccccc1)CCc1n[nH]cc1-2` [Example 100, 2-amino-4-phenyl-6,8-dihydro-5H-pyrazolo[3,4-h]quinoline-3-carbonitrile bis(trifluoroacetate)], the IC50 in assay [1] (setting [3]) turned out to be 17.7 µM.

On to `N#Cc1c(N)nc2c(c1-c1cccc(F)c1F)CCc1[nH]ncc1-2.O=C(O)C(F)(F)F.O=C(O)C(F)(F)F` [Example 102, 2-amino-4-(2,3-difluorophenyl)-6,7-dihydro-5H-pyrazolo[3,4-h]quinoline-3-carbonitrile bis(trifluoroacetate)], for which the IC50 in assay [1] (U-937, 4 h) amounted to 4 µM. For the same molecule, in the assay with TNFα production, the “Rat LPS assay: inhibition of TNFα production” value amounted to 83%.

Turning to `N#Cc1c(N)nc2c(c1-c1ccco1)CCc1cn[nH]c1-2` [Example 105, 8-amino-6-(2-furyl)-4,5-dihydro-1H-pyrazolo[4,3-h]quinoline-7-carbonitrile], the 50% inhibitory concentration (IC50) in assay [1] (setting [3]) was 0.9 µM.

For `N#Cc1c(-c2ccco2)cc(-c2cc[nH]n2)nc1N` [Example 106, 2-amino-4-(2-furyl)-6-(1H-pyrazol-3-yl)nicotinonitrile trifluoroacetate], the IC50 in assay [1] (setting [3]) stood at 4 µM.

Regarding `CCOCC1Cc2c(nc(N)c(C#N)c2N)O1` (stereo not drawn) [Example 125, trifluoroacetate], the IC50 in assay [2] worked out at 127 µM.
